Source: patent publication US20180214691A1, “NEUROMODULATION DEVICE” (GALVANI BIOELECTRONICS LIMITED, priority 2015, published 2018)
“Also recorded” adds a separate entry of the source.

Key:
[1] = system: cats; experiment: Cat PGE2 model of bladder dysfunction; assay type: in vivo; conditions: PGE2 cats versus controls (each cat before PGE2 installation is its own control); N=3
Description: Pelvic nerve stimulation is also effective in other models of OAB.

[2] = system: rats; experiment: Cystometrograms in the rat PGE2 model of bladder dysfunction; assay type: in vivo
Description: In the following examples, two accepted animal models of bladder dysfunction were used. The first was a PGE2 (prostoglandin E2) model, in which installation of PGE2 into rats induces a hyperactive bladder response.
Animal models of bladder dysfunction need to take into account the fact that rodent (e.g. rat) urination behaviour differs from that of humans. However, the following parameters (as defined in Andersson et al. Neurourology and Urodynamics, 30: 636-646 (2011), which is incorporated herein by reference) are accepted measures against which therapeutic interventions can be assessed (adapted from Andersson et al.): • (a) Baseline pressure: minimum pressure between two micturitions. This parameter is important as an internal control for the procedure. • (b) Intermicturition pressure: mean pressure between two micturitions. The IMP is related to the occurrence of non-voiding contractions (NVCs). The more frequent and with higher amplitude the NVCs, the higher the IMP will be. • (c) Threshold pressure: intravesical pressure immediately before micturition. • (d) Maximum pressure: maximum bladder pressure during a micturition cycle. Also known as peak pressure, maximum voiding pressure, or maximum intravesical pressure. It should be noted that this pressure is not identical with the micturition pressure. The true micturition pressure is the pressure at which fluid starts to flow. • (e) Spontaneous activity (SA) or mean intermicturition oscillatory pressure: intermicturition pressure minus baseline pressure. This parameter is an approximate index of spontaneous bladder contractions between micturitions. SA will increase if there are frequent NVCs between micturitions. • (f) Non-voiding contractions (NVCs): defined as increases in intravesical pressure during cystometry, not associated with release of fluid. […] Since threshold pressure is the pressure at onset of micturition, subtraction of baseline pressure from threshold pressure gives the pressure variation between micturitions. • (l) Voiding efficiency: the voided volume expressed as a percentage of bladder capacity (i.e. voided volume/bladder capacity*100) • (m) External urethral sphincter electromyography: electrodes are placed into the external urethral sphincter and electromyography is recorded during bladder filling and voiding. A number of the parameters above were measured for both PGE2 and SHR rats.
A PE-90 polyethylene catheter was inserted into the bladder lumen through a small incision in the apex of the bladder dome. The bladder catheter was connected an infusion pump and a pressure transducer to measure bladder pressure. Additionally, two PFA-coated platinum-iridium wires (0.0055 inch diameter) were bilaterally inserted percutaneously into the external urethral sphincter (EUS) to record EUS EMG. Alternatively, a bipolar paddle electrode was placed intra-abdominally between the external urethral sphincter (EUS) and pubic symphysis (platinum-iridium contacts facing the urethra) to record EUS EMG.
At the start of an experiment, the bladder was continuously filled with physiological saline at room temperature using an infusion pump with an open urethra for 45 minutes to allow recovery post-surgery. The bladder was subsequently emptied, and CMG's were recorded. A single CMG event was characterized by a quiet period, a filling period, and a voiding period at the end of the voiding event, the infusion pump was turned off. The bladder was then emptied and subsequent CMG's were conducted.
PGE2: Control CMG's were conducted under saline infusion. After 2-3 subsequent control CMG events, the bladder was then infused continuously with PGE2 solution for 1 hour to allow for the bladder to reach drug related steady state. Multiple CMG's were then taken.
CMG parameters recorded were previously described by Andersson et al. as outlined above in example 1: model validation. […]

`CCCCC[C@H](O)/C=C/[C@H]1[C@H](O)CC(=O)[C@@H]1C/C=C\CCCC(=O)O` [PGE2, prostoglandin E2] was tested, and the bladder capacity [1] was “dose dependent reduction”, the NVC duration ([2]; PGE2 rats versus controls) was “decreased; also recorded: reduction” and the bladder capacity ([2]; PGE2 rats versus controls) was “reduction”. For the same compound, the maximum bladder pressure ([2]; PGE2 rats versus controls) was “reduction”, the threshold bladder pressure ([2]; PGE2 rats versus controls) was “reduction” and the “Δbladder pressure (threshold minus baseline bladder pressure)” value ([2]; PGE2 rats versus controls) was “reduction”. For the same compound, the voiding efficiency ([2]; PGE2 rats versus controls (each rat before PGE2 installation is its own control), bladder infused with PGE2 solution for 1 hour) was “decreased voiding efficiency; also recorded: statistically non-significant reduction”, the “external urethral sphincter (EUS) EMG activity” value ([2]; PGE2 rats versus controls, filling and voiding phases of a CMG event) was “abnormal; also recorded: increase” and the “non-voiding contraction (NVC) magnitude (bladder pressure area under the curve)” value ([2]; PGE2 rats versus controls, filling phase) was “decreased magnitude; also recorded: reduction”.
